Reference: the NIST ThermoML archive (doi:10.1021/je0600808)
± gives the expanded uncertainty stated by the source.

Key:
[1] = 101.33 kPa, Liquid
[2] = xn = mol fraction of the nth substance listed; conditions: 101 kPa, Liquid

CCCO [propan-1-ol]
[1]
Conditions | mass density [kg/m3] | viscosity [mPa·s]
293.15 K | 803.62 ± 1.8 | 2.238 ± 0.026
298.15 K | 799.41 ± 1.8 | 1.981 ± 0.023
303.15 K | 795.27 ± 1.8 | 1.745 ± 0.021
313.15 K | 786.62 ± 1.9 | 1.381 ± 0.017
323.15 K | 773.91 ± 1.9 | 1.115 ± 0.014
333.15 K | 767.31 ± 2 | 0.907 ± 0.012
343.15 K | 755.95 ± 2.1 | 0.742 ± 0.011
353.15 K | 748.41 ± 2.1 | 0.615 ± 0.01
363.15 K | 739.7 ± 2.2 | 0.515 ± 0.009

CCCCO [butan-1-ol]
[1]
Conditions | mass density [kg/m3] | viscosity [mPa·s]
293.15 K | 809.82 ± 3.4 | 2.963 ± 0.035
298.15 K | 806.06 ± 3.5 | 2.619 ± 0.031
303.15 K | 802.03 ± 3.5 | 2.298 ± 0.027
313.15 K | 793.29 ± 3.6 | 1.786 ± 0.022
323.15 K | 786.55 ± 3.7 | 1.421 ± 0.018
333.15 K | 777.81 ± 3.9 | 1.137 ± 0.015
343.15 K | 767.03 ± 4 | 0.92 ± 0.013
353.15 K | 757.52 ± 4.1 | 0.759 ± 0.011
363.15 K | 749.38 ± 4.2 | 0.63 ± 0.01

CCOC(=O)OCC [diethyl carbonate]
[1]
Conditions | mass density [kg/m3] | viscosity [mPa·s]
293.15 K | 975 ± 1.3 | 0.8 ± 0.011
298.15 K | 968.97 ± 1.4 | 0.746 ± 0.011
303.15 K | 962.39 ± 1.5 | 0.695 ± 0.01
313.15 K | 952.32 ± 1.6 | 0.61 ± 0.01
323.15 K | 939.78 ± 1.8 | 0.541 ± 0.009
333.15 K | 928.69 ± 1.9 | 0.483 ± 0.009
343.15 K | 916.33 ± 2.1 | 0.435 ± 0.008
353.15 K | 905.02 ± 2.2 | 0.393 ± 0.008
363.15 K | 893.71 ± 2.4 | 0.358 ± 0.008

CCCCCO [pentan-1-ol]
[1]
Conditions | mass density [kg/m3] | viscosity [mPa·s]
293.15 K | 814.51 ± 1.7 | 4.117 ± 0.049
298.15 K | 810.73 ± 1.7 | 3.556 ± 0.043
303.15 K | 806.77 ± 1.8 | 3.06 ± 0.037
313.15 K | 799.05 ± 1.8 | 2.332 ± 0.029
323.15 K | 789.81 ± 1.9 | 1.822 ± 0.023
333.15 K | 781.81 ± 1.9 | 1.44 ± 0.018
343.15 K | 772.84 ± 2 | 1.146 ± 0.015
353.15 K | 764.79 ± 2 | 0.931 ± 0.013
363.15 K | 757.17 ± 2.1 | 0.767 ± 0.011

CCOC(=O)OCC [diethyl carbonate] + CCCCO
[2]
Conditions | mass density, x1 = 0.1016 [kg/m3] | mass density, x1 = 0.2023 [kg/m3] | mass density, x1 = 0.2974 [kg/m3] | viscosity, x1 = 0.1016 [mPa·s] | viscosity, x1 = 0.2023 [mPa·s] | viscosity, x1 = 0.2974 [mPa·s]
293.15 K | 830.56 ± 1.6 | 849.89 ± 1.5 | 867.23 ± 1.4 | 2.161 ± 0.026 | 1.681 ± 0.02 | 1.38 ± 0.02
298.15 K | 826.34 ± 1.6 | 845.4 ± 1.5 | 862.6 ± 1.4 | 1.909 ± 0.023 | 1.504 ± 0.018 | 1.254 ± 0.016
303.15 K | 821.75 ± 1.6 | 840.53 ± 1.5 | 857.48 ± 1.4 | 1.685 ± 0.02 | 1.339 ± 0.017 | 1.13 ± 0.014
313.15 K | 812.55 ± 1.7 | 831.22 ± 1.6 | 847.88 ± 1.5 | 1.345 ± 0.017 | 1.091 ± 0.014 | 0.932 ± 0.013
323.15 K | 804.95 ± 1.7 | 822.83 ± 1.6 | 838.91 ± 1.5 | 1.097 ± 0.014 | 0.906 ± 0.012 | 0.785 ± 0.011
333.15 K | 795.85 ± 1.8 | 813.37 ± 1.7 | 829.07 ± 1.6 | 0.904 ± 0.012 | 0.761 ± 0.011 | 0.668 ± 0.01
343.15 K | 784.94 ± 1.9 | 802.09 ± 1.8 | 817.6 ± 1.7 | 0.749 ± 0.011 | 0.642 ± 0.01 | 0.572 ± 0.009
353.15 K | 775.15 ± 1.9 | 792.01 ± 1.8 | 807.21 ± 1.7 | 0.63 ± 0.01 | 0.549 ± 0.009 | 0.496 ± 0.009
363.15 K | 766.42 ± 2 | 782.78 ± 1.9 | 797.61 ± 1.8 | 0.536 ± 0.009 | 0.475 ± 0.009 | 0.434 ± 0.008
